For orientation: IC50 means the concentration needed to halve the response being measured.

Numbered stars: 1 amine (or outer) side, 2 acyl side, 3 side chain; on linkers, the order of the positions; unused ones are H or OH. Bridge positions count the residues as written; N and C are the ends. Square brackets hold non-standard residues; d marks the D form. Peptide text beside a SMILES is read from it. * marks the point of attachment. hPhe(3-Cl-4-CF3) = N[C@@H](CCc1ccc(C(F)(F)F)c(Cl)c1)C(=O)O; hPhe(3-F,4-CF3) = N[C@@H](CCc1ccc(C(F)(F)F)c(F)c1)C(=O)O; X33 = O=C([C@H](CCc1c(F)c(F)c(F)c(F)c1F)N[*:1])[*:2]; X71 = O=C([C@H](CCc1ccc(C(F)(F)F)cc1F)N[*:1])[*:2]; X56 = O=C([C@H](CCc1cccc(C(F)(F)F)c1)N[*:1])[*:2]; X118 = O=C([C@H](CCc1c(F)cc(F)cc1F)N[*:1])[*:2]; X103 = O=C([C@H](CCc1c(F)cccc1Cl)N[*:1])[*:2]; NMePhe(4-Cl) = CN[C@@H](Cc1ccc(Cl)cc1)C(=O)O; X29 = O=C([C@H](CCc1cc(Cl)ccc1F)N[*:1])[*:2]; NMePhe(4-Me) = CN[C@@H](Cc1ccc(C)cc1)C(=O)O; NMeGly(cPent) = CN[C@H](C(=O)O)C1CCCC1; Phe(3-I) = N[C@@H](Cc1cccc(I)c1)C(=O)O; NMeCha = CN[C@@H](CC1CCCCC1)C(=O)O; Azetidine(3,3-F2) = FC1(F)CN(*)C1; NMeF = CN[C@@H](Cc1ccccc1)C(=O)O; N(CH2CH2)2CF2 = FC1(F)CCN(*)CC1; NMeE = CN[C@@H](CCC(=O)O)C(=O)O; NMeD = CN[C@@H](CC(=O)O)C(=O)O; NMeL = CN[C@@H](CC(C)C)C(=O)O; d(β3hA) = C[C@@H](N)CC(=O)O; Morpholide = C1CN(*)CCO1; NMeA = CN[C@@H](C)C(=O)O; NMeAib = CNC(C)(C)C(=O)O; Pyrrolidide = C1CCN(*)C1; Ac5c = NC1(C(=O)O)CCCC1; Aze = O=C(O)[C@@H]1CCN1; X80 = FC1(F)CCCN(*)C1; Sar = CNCC(=O)O

In the first assay the target is protein-protein interaction between Kras and SOS1 (biotin-tagged human Kras loaded with GDP, His-tagged human SOS1) (Homo sapiens (Human), UniProt P01116, G12D). Put plainly: Protein-protein interaction inhibition between Kras and SOS1 (KrasG12D-SOS PPI) using AlphaScreen.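 Further: kras produced in E. coli, Ni-coupled donor beads and streptavidin acceptor beads, excitation 680 nm with emission detected at 520–620 nm via singlet oxygen transfer.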 The assay is classed as biochemical.
Details: not given
A general note: Alpha assays give light when donor and acceptor beads are brought close together.
Compound `CC[C@H](C)[C@@H]1NC(=O)[C@H](CC(C)C)N(C)C(=O)C[C@@H](C(=O)N(C)C)N(C)C(=O)[C@H](C2CCCC2)N(C)C(=O)C2(CCCC2)NC(=O)[C@H](CC(=O)N2CCCC2)N(C)C(=O)[C@H](CCc2ccc(C(F)(F)F)c(Cl)c2)NC(=O)CN(C)C(=O)[C@H](CC2CCCCC2)N(C)C(=O)[C@@H]2CCN2C(=O)[C@H](C)N(C)C1=O` [Compound 2097] ([NMeL]I[NMeA][Aze][NMeCha][Sar][hPhe(3-Cl-4-CF3)][NMeD](Pyrrolidide)[Ac5c][NMeGly(cPent)][NMeD]-NMe2; lactam N-11) returned an IC50 of 0.57 nM.

`CC[C@H](C)[C@@H]1NC(=O)[C@H](CC(C)C)N(C)C(=O)C[C@@H](C(=O)N2CCCC(F)(F)C2)N(C)C(=O)[C@H](CC(C)C)NC(=O)C(C)(C)N(C)C(=O)[C@H](Cc2ccc(OC)cc2)NC(=O)[C@H](Cc2cccc(I)c2)NC(=O)CN(C)C(=O)[C@H](Cc2ccc(C)cc2)N(C)C(=O)CN(C)C(=O)CN(C)C1=O` [Compound 2099, (3S,9S,12S,18S,27S,30S,34S)-34-(3,3-difluoropiperidine-1-carbonyl)-12-[(3-iodophenyl)methyl]-3,30-diisobutyl-9-[(4-methoxyphenyl)methyl]-1,6,6,7,16,19,22,25,31-nonamethyl-27-[(1S)-1-methylpropyl]-18-(p-tolylmethyl) 1,4,7,10,13,16,19,22,25,28,31-undecazacyclotetratriacontane-2,5,8,11,14,17,20,23,26,29,32-undecone] ([NMeL]I[Sar][Sar][NMePhe(4-Me)][Sar][Phe(3-I)]Y(Me)[NMeAib]L[NMeD]-X80; lactam N-11) displayed an IC50 of 25 nM.

Staying with this assay, now noted: AlphaScreen; biotin-tagged human Kras loaded with GDP, His-tagged human SOS1; read-out: KRAS G12D-SOS PPI IC50.
As for `CC[C@H](C)[C@@H]1NC(=O)[C@H](C)N(C)C(=O)C[C@@H](C)NC(=O)[C@H](CC(C)C)N(C)C(=O)[C@H](Cc2ccccc2)N(C)C(=O)[C@H](CC(C)C)NC(=O)[C@H](CCc2c(F)cc(F)cc2F)NC(=O)CN(C)C(=O)[C@H](Cc2ccc(Cl)cc2)N(C)C(=O)CN(C)C(=O)CN(C)C1=O` [Compound 2090] (cyclo(I[Sar][Sar][NMePhe(4-Cl)][Sar][X118]L[NMeF][NMeL][d(β3hA)][NMeA])), the IC50 was determined as 380 nM. Still for that read-out and setting: the value for `CC[C@H](C)[C@@H]1NC(=O)[C@H](C)N(C)C(=O)C[C@@H](C)NC(=O)[C@H](CC(C)C)N(C)C(=O)[C@H](Cc2ccccc2)N(C)C(=O)[C@H](CC(C)C)NC(=O)[C@H](CCc2c(F)c(F)c(F)c(F)c2F)NC(=O)CN(C)C(=O)[C@H](Cc2ccc(Cl)cc2)N(C)C(=O)CN(C)C(=O)CN(C)C1=O` [Compound 2091] (cyclo(I[Sar][Sar][NMePhe(4-Cl)][Sar][X33]L[NMeF][NMeL][d(β3hA)][NMeA])) was 270 nM; that for `CC[C@H](C)[C@@H]1NC(=O)[C@H](C)N(C)C(=O)C[C@@H](C)NC(=O)[C@H](CC(C)C)N(C)C(=O)[C@H](Cc2ccccc2)N(C)C(=O)[C@H](CC(C)C)NC(=O)[C@H](CCc2c(F)cccc2Cl)NC(=O)CN(C)C(=O)[C@H](Cc2ccc(Cl)cc2)N(C)C(=O)CN(C)C(=O)CN(C)C1=O` [Compound 2092] (cyclo(I[Sar][Sar][NMePhe(4-Cl)][Sar][X103]L[NMeF][NMeL][d(β3hA)][NMeA])) was 350 nM; that for `CC[C@H](C)[C@@H]1NC(=O)[C@H](C)N(C)C(=O)C[C@@H](C)NC(=O)[C@H](CC(C)C)N(C)C(=O)[C@H](Cc2ccccc2)N(C)C(=O)[C@H](CC(C)C)NC(=O)[C@H](CCc2ccc(C(F)(F)F)c(F)c2)NC(=O)CN(C)C(=O)[C@H](Cc2ccc(Cl)cc2)N(C)C(=O)CN(C)C(=O)CN(C)C1=O` [Compound 2093] (cyclo(I[Sar][Sar][NMePhe(4-Cl)][Sar][hPhe(3-F,4-CF3)]L[NMeF][NMeL][d(β3hA)][NMeA])) was 37 nM. The same measure, in the same setting: the value for `CC[C@H](C)[C@@H]1NC(=O)[C@H](C)N(C)C(=O)C[C@@H](C)NC(=O)[C@H](CC(C)C)N(C)C(=O)[C@H](Cc2ccccc2)N(C)C(=O)[C@H](CC(C)C)NC(=O)[C@H](CCc2cc(Cl)ccc2F)NC(=O)CN(C)C(=O)[C@H](Cc2ccc(Cl)cc2)N(C)C(=O)CN(C)C(=O)CN(C)C1=O` [Compound 2094] (cyclo(I[Sar][Sar][NMePhe(4-Cl)][Sar][X29]L[NMeF][NMeL][d(β3hA)][NMeA])) was 200 nM; that for `CC[C@H](C)[C@@H]1NC(=O)[C@H](C)N(C)C(=O)C[C@@H](C)NC(=O)[C@H](CC(C)C)N(C)C(=O)[C@H](Cc2ccccc2)N(C)C(=O)[C@H](CC(C)C)NC(=O)[C@H](CCc2cccc(C(F)(F)F)c2)NC(=O)CN(C)C(=O)[C@H](Cc2ccc(Cl)cc2)N(C)C(=O)CN(C)C(=O)CN(C)C1=O` [Compound 2095] (cyclo(I[Sar][Sar][NMePhe(4-Cl)][Sar][X56]L[NMeF][NMeL][d(β3hA)][NMeA])) was 240 nM.

On to `CC[C@H](C)[C@@H]1NC(=O)[C@H](C)N(C)C(=O)C[C@@H](C(=O)N2CCCC2)NC(=O)[C@H](CC(C)C)N(C)C(=O)[C@H](Cc2ccccc2)N(C)C(=O)[C@@H]2CCCN2C(=O)[C@H](CCc2ccc(C(F)(F)F)cc2F)NC(=O)CN(C)C(=O)[C@H](Cc2ccc(Cl)cc2)N(C)C(=O)CN(C)C(=O)CN(C)C1=O` [Compound 2096, (3S,9S,18S,21S,25S,28S,31S,34S)-31-benzyl-9-[(4-chlorophenyl)methyl]-3-[2-[2-fluoro-4-(trifluoromethyl)phenyl]ethyl]-28-isobutyl-7,10,13,16,21,22,29,32-octamethyl-18-[(1S)-1-methylpropyl]-25-(pyrrolidine-1-carbonyl)-1,4,7,10,13,16,19,22,26,29,32-undecazabicyclo[32.3.0]heptatriacontane-2,5,8,11,14,17,20,23,27,30,33-undecone] ([NMeA]I[Sar][Sar][NMePhe(4-Cl)][Sar][X71]P[NMeF][NMeL]D-Pyrrolidide; lactam N-11), for which the IC50 was found to be 19 nM.

Take `CC[C@H](C)[C@@H]1NC(=O)[C@H](CC(C)C)N(C)C(=O)C[C@@H](C(=O)N2CCOCC2)N(C)C(=O)[C@H](C2CCCC2)N(C)C(=O)C2(CCCC2)NC(=O)[C@H](CCC(=O)N2CC(F)(F)C2)N(C)C(=O)[C@H](CCc2ccc(C(F)(F)F)c(Cl)c2)NC(=O)CN(C)C(=O)[C@H](CC2CCCCC2)N(C)C(=O)[C@@H]2CCN2C(=O)[C@H](C)N(C)C1=O` [Compound 2098] ([NMeL]I[NMeA][Aze][NMeCha][Sar][hPhe(3-Cl-4-CF3)][NMeE](Azetidine(3,3-F2))[Ac5c][NMeGly(cPent)][NMeD]-Morpholide; lactam N-11): the IC50 was determined as 8 nM. In the case of `CC[C@H](C)[C@@H]1NC(=O)[C@H](CC(C)C)N(C)C(=O)C[C@@H](C(=O)N2CCC(F)(F)CC2)N(C)C(=O)[C@H](CC(C)C)NC(=O)C(C)(C)N(C)C(=O)[C@H](Cc2ccc(OC)cc2)NC(=O)[C@H](Cc2cccc(I)c2)NC(=O)CN(C)C(=O)[C@H](Cc2ccc(C)cc2)N(C)C(=O)CN(C)C(=O)CN(C)C1=O` [Compound 2101, (3S,9S,12S,18S,27S,30S,34S)-34-(4,4-difluoropiperidine-1-carbonyl)-12-[(3-iodophenyl)methyl]-3,30-diisobutyl-9-[(4-methoxyphenyl)methyl]-1,6,6,7,16,19,22,25,31-nonamethyl-27-[(1S)-1-methylpropyl]-18-(p-tolylmethyl)-1,4,7,10,13,16,19,22,25,28,31-undecazacyclotetratriacontane-2,5,8,11,14,17,20,23,26,29,32-undecone] ([NMeL]I[Sar][Sar][NMePhe(4-Me)][Sar][Phe(3-I)]Y(Me)[NMeAib]L[NMeD]-{N(CH2CH2)2CF2}; lactam N-11), the IC50 turned out to be 53 nM.

These data come from US20240148821A1, “PHARMACEUTICAL USE OF CYCLIC PEPTIDE COMPOUND” (CHUGAI SEIYAKU KABUSHIKI KAISHA, priority 2021, published 2024).
